Results reported in US6720332B2, “Oxindole derivatives” (SmithKline Beecham Corporation, priority 2000, dated 2004).

Key:
[1] = biological target: T1, CDK4 (Cyclin D1 and cyclin-dependent kinase 4) (Homo sapiens, UniProt P11802); experiment: CDK4 substrate phosphorylation assay (Rb protein); format: biochemical; settings: read-out: CDK4 inhibition
T1 construct: made in house
Procedure: (§1) The compounds of the present invention have valuable pharmacologic properties. Different compounds from this class are particularly effective at inhibiting CDK2 and/or CDK4 enzymes at concentrations, which range from 0.0001 to 1 μM and additionally show specificity relative to other kinases. Substrate phosphorylation assays were carried out as follows:
Cyclin D1 and cyclin-dependent kinase 4 were expressed utilizing a baculovirus expression system. The catalytic activity of CDK4 protein was assayed by measuring the phosphorylation of Rb protein. A truncated Rb protein (residues 773-928 of the native retinoblastoma protein, fused to glutathione S-transferase to facilitate purification) was used as the phosphoryl acceptor. The assay conditions were 100 mM HEPES (N-[2-hydroxyethyl]piperzine-N′-[2-ethanesulfonic acid]), pH 7.5, 0.5 μM GST-Rb protein, 1 μCi/mL [^33P]-ATP (1 nM-20 μM), 5-20 mM MgCl2, 2.5 mM EDTA, 1 mM dithiothieitol, 0.2 mg/mL bovine serum albumin, 2% (v/v) dimethyl sulfoxide (DMSO), CDK4 enzyme (5-50 nM) in a final volume of 50 μL. Reactions were incubated for time periods of 10-60 min at 30° C. and terminated by the addition of 50 μL quench (1 mM ATP/100 mM EDTA, pH 7.0). Detection of protein phosphorylation was accomplished by scintillation counting following collection of protein in 96 well plates coated with Glitathione or trapping of protein onto phosphocellulose filters. Counts detected by these methodologies minus the appropriate background were assumed to be proportional to the reaction initial rates. IC50 values were determined by measuring enzyme activity in the presence of different inhibitor concentrations (0.1 nM to 50 μM). IC50s were determined by a least squares fit to the equation CPM=Vmax*(1−([I]/(K+[I])))+nsb, or pIC50s were determined by a fit to the equation CPM=nsb+(Vmax−nsb)/(1+(x/10^x−pIC50)), where nsb are the background counts.

[2] = biological target: T2, CDK2 (Homo sapiens, UniProt P24941); experiment: CDK2 substrate phosphorylation assay (biotinylated peptide); format: biochemical; settings: read-out: CDK2 inhibition
T2 construct: made in house
Procedure: as §1
Cyclin dependent protein kinase 2 assays utilized the peptide Biotin-aminohexyl-ARRPMSPKKKA-NH2 as phosphoryl group acceptor. CDK2 was expressed utilizing a baculovirus expression system and was partially purified to comprise 20-80% of total protein, with no detectable competing reactions present. Typically, assays were performed by incubating enzyme (0.2-10 nM), with and without inhibitor, peptide substrate (1-10 nM), [g-^32P]ATP (1-20 nM), and 10-20 mM Mg^2+ for periods of time generally within the range 10-120 minutes. Reactions were terminated with 0.2-2 volumes of either 20% acetic acid or 50-100 mM EDTA buffered to pH 7 (substrate consumption <20%). The buffer employed in enzyme assay was 100 mM HEPES pH 7.5 containing 0.1 mg/mL BSA and 5% DMSO. Inhibitors were diluted in 100% DMSO prior to addition into the assay. Detection of peptide phosphorylation was accomplished by scintillation counting following either collection of peptide onto phosphocellulose filters (for reactions stopped with acetic acid), collection of peptide in wells of 96 well plates coated with Streptavidin (Pierce) (reactions were stopped with EDTA), or addition of Avidin coated Scintillant impregnated beads (Scintillation Proximity Assays from Amersham, reactions were stopped with EDTA). […] Radioactivity was determined by liquid scintillation counting.

[3] = tested on: human tumor cells (U2OS, MDA-MB-231, SaOs-2, MDA-MB-468); experiment: Anti-proliferation cell-based assay (BrdU incorporation); settings: 18 hr compound incubation, cell line not given, read-out: Anti-proliferative activity
Procedure: Anti-Proliferation Cell-Based Assay
The anti-proliferative activity of compounds was determined measuring the rate of DNA synthesis by bromodeoxyuridine (BrdU) incorporation into cellular DNA. The amount of BrdU in cellular DNA was detected using an anti-BrdU antibody in an ELISA format to allow for rapid throughput. Log-phase growing human tumor cells either containing functional Rb (U2OS, MDA-MB-231) or lacking functional Rb protein (SaOs-2, MDA-MB-468) were plated in medium into 96-well plates (1−6×10^3 cells/100 μL medium/well) and allowed to incubate overnight […]. Compounds (concentration range of 0.046-100 μM) were diluted in medium (final DMSO (v/v) 0.8%), added to wells containing cells, and incubated for 18 hr at 37° C. BrdU (100 μM) was added and incubated for 4 hr. Cells were rinsed with PBS and DNA was denatured by addition of fixation/denaturation solution. Anti-BrdU antibody conjugated to horseradish peroxidase in 1% BSA was added for 2 hr at room temperature. Cells were washed, the chemiluminescence reagent was added, and plates were read in luminometer.

T1 sequence (P11802 whole entry): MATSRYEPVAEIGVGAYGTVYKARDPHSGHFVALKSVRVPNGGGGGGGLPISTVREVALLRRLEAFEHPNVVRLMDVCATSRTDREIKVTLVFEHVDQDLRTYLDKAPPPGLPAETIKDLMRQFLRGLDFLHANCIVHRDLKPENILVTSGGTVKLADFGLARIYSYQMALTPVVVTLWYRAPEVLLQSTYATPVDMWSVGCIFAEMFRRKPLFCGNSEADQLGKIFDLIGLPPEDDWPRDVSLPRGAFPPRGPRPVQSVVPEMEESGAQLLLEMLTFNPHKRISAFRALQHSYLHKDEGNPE
T1 sequence (P24385 whole entry partner): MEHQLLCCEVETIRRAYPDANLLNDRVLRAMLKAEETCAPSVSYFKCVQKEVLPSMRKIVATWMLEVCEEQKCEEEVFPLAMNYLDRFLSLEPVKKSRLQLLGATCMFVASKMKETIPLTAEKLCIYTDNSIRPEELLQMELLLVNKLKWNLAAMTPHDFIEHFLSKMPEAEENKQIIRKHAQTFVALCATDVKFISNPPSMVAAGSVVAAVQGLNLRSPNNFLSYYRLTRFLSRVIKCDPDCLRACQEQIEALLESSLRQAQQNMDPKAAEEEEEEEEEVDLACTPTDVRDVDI

| IC50 [1] [nM] | IC50 [2] [nM] | IC50 [3] [nM] | SMILES |
| --- | --- | --- | --- |
| < 100 | < 1000 | < 1000 | CN(C)Cc1ccc(N/C=C2\C(=O)Nc3ccc4ncccc4c32)cc1 [Example 1, 1-[(Z)-(4-Dimethylaminomethylanilino)methylidene]-1,3-dihydro-2H-pyrrolo[3,2-f]quinoline-2-one] |
| < 100 | < 1000 | < 100 | CC(C)CN(C)Cc1ccc(N/C=C2\C(=O)Nc3ccc4ncccc4c32)cc1 [Example 6, 1-[(Z)-(4-(N-Methyl)-2-methylpropylaminomethylanilino)methylidene]-1,3-dihydro-2H-pyrrolo[3,2-f]quinoline-2-one] |
| < 100 | < 100 | < 1000 | O=C1Nc2ccc3ncccc3c2/C1=C/Nc1ccc(CN2CCOCC2)cc1 [Example 10, 1-[(Z)-(4-(4-morpholinyl)methylanilino)methylidene]-1,3-dihydro-2H-pyrrolo[3,2-f]quinoline-2-one] |
